Laboratory results reported in article PMC7910394, “Design of PSMA ligands with modifications at the inhibitor part: an approach to reduce the salivary gland uptake of radiolabeled PSMA inhibitors?” (EJNMMI Radiopharmacy and Chemistry, 2021).
Read-outs that look alike come from different tables or passages of the source.

How the values were obtained:
PSMA = biological target: T1, PSMA (Homo sapiens, UniProt Q04609); test: Competitive binding assay (IC50) on LNCaP cells with ([125I]I-BA)KuE as radioligand; conditions: ([125I]I-BA)KuE 0.2 nM, HBSS (1% BSA), 4 °C, 1 h
T1 construct: host or cells: LNCaP human prostate cancer cells
T1 sequence (Q04609 whole entry): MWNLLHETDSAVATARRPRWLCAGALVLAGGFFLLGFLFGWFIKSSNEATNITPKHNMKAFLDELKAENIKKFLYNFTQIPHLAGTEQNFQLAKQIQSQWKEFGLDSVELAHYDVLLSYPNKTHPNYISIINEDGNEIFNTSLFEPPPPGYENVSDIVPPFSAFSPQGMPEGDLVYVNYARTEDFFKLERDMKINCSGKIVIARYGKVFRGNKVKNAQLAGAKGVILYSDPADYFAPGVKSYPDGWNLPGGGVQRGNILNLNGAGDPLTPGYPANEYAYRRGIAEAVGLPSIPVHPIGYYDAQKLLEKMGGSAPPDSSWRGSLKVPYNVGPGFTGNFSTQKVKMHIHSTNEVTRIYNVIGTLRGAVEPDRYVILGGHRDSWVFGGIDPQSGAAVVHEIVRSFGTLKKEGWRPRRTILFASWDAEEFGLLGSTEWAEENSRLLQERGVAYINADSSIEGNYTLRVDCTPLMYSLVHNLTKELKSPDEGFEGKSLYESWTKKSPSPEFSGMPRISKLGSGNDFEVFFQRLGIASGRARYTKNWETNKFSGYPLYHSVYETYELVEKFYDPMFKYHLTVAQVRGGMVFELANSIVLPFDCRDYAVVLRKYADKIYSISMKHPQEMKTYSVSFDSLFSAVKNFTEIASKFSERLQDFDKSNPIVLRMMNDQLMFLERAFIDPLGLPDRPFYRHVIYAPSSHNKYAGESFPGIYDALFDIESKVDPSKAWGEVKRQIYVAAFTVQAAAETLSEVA
Description: (§1) PSMA-positive LNCaP cells (300265; Cell Lines Service, Eppelheim, Germany) were cultivated in Dulbecco’s modified Eagle medium/Nutrition Mixture F-12 with GlutaMAX (1/1, DMEM-F12, Thermo Fisher Scientific, Darmstadt, Germany) supplemented with 10% fetal bovine serum (Merck KGaA, Darmstadt, Germany) and kept at 37 °C in a humidified 5% CO2 atmosphere. One day (24 ± 2 h) prior to all in vitro experiments, the cultivated LNCaP cells were harvested using a mixture of trypsin/ethylenediamine-tetraacetic acid (0.05%/0.02%) in PBS (Thermo Fisher Scientific, Darmstadt, Germany) and centrifuged at 1300 rpm (ca. 190×g) for 3 min at room temperature (Heraeus Megafuge 16, Thermo Fisher Scientific, Darmstadt, Germany). After centrifugation, the supernatant was disposed and the cell pellet was resuspended in culture medium. Cells were counted with a Neubauer hemocytometer (Paul Marienfeld GmbH & Co. KG, Lauda-Königshofen, Germany) and seeded in 24-well plates.
(§2) Detailed information on affinity and internalization experiments is provided in the supporting information. […] IC50 values of (^natI-BA)KuE were determined on the same day for monitoring assay performance and to identify abnormal deviations in uptake and/or affinity. […] Data were corrected for non-specific binding and normalized to the specific internalization observed for the radioiodinated reference compound (n = 3).
The culture medium was removed and the cells were washed with 500 µL of Hank’s balanced salt solution (HBSS) (Merck KGaA, Darmstadt, Germany), containing 1% bovine serum albumin (BSA) (Merck KGaA, Darmstadt, Germany). Afterwards, 200 µL of HBSS (1% BSA) were added to each well and equilibrated on ice (4 °C) for 15 min. […] Experiments were carried out in triplicates for each concentration. The final concentrations of unlabeled ligand ranged from 10^-11 - 10^-5 M and the final radioligand concentration was 0.2 nM in all binding assays. The cells were incubated for one hour at 4 °C. Incubation was terminated by removal of the incubation medium. The cells were washed with 250 µL of HBSS (1% BSA) and the wash medium was combined with the respective supernatant. This fraction represents the amount of free radioligand. The cells were lysed by addition of 250 µL of 1 M aqueous NaOH. The lysate of each well was transferred to the respective vial as well as 250 µL of 1 M NaOH used for rinsing the well. Quantification of the amount of free and bound activity was performed in a γ-counter. The corresponding IC50 values were calculated using the GraphPad PRISM7 software.

LNCaP cells = test: Internalization study of 177Lu-labeled ligands in LNCaP cells, normalized to ([125I]I-BA)KuE; type: cell-based, human; conditions: 1 h, 37 °C, 1.0 nM 177Lu-compound, normalized to ([125I]I-BA)KuE
Description: as §1, §2
The culture medium was removed and the cells were washed with 500 µL of DMEM-F12 containing 5% BSA. Afterwards, 200 µL of DMEM-F12 (5% BSA) were added to each well and left to equilibrate at 37 °C for 15 min. 25 µL of DMEM-F12 (5% BSA) were added to each well, followed by the addition of 25 µL of the respective ^177Lu-labeled ligand (10.0 nM in DMEM-F12 (5% BSA)). For blocking PSMA-specific binding and uptake, 25 µL of 2-(phosphonomethyl)pentane-1,5-dioic acid (2-PMPA) (100 µM in DMEM (5% BSA)) instead of DMEM-F12 (5% BSA) were added prior to radiotracer addition. […] Each experiment (control and blockade) was performed in triplicate. […] Incubation was terminated by placing the plate on ice (4 °C, 1 min) and removal of the incubation medium. The cells were washed with 250 µL of ice-cold PBS and the wash medium was combined with the respective supernatant. This fraction represents the amount of free radioligand. 250 µL of ice-cold 2-PMPA (10 µM in PBS) were added and the cells were incubated for 10 min at 4 °C. Afterwards, the cells were rinsed again with 250 µL of ice-cold PBS and the wash medium was combined with the respective supernatant. This fraction represents the amount of cell surface-bound ligand. In the last step, the cells were lysed by addition of 250 µL of 1 M aqueous NaOH. After 20 min, the lysate of each well was transferred to the respective vial as well as 250 µL of 1 M NaOH used for rinsing the well. This fraction represents the amount of internalized radioligand. Quantification of the amount of free, cell surface-bound and internalized activity was performed in a γ-counter.

[1] = test system: LNCaP tumor xenograft-bearing CB17-SCID mice; type: in vivo, mouse
Description: All animal experiments were conducted in accordance with general animal welfare regulations in Germany (German animal protection act, as amended on 18.05.2018, Art. 141 G v. 29.3.2017 I 626, approval no. 55.2–1-54-2532-71-13) and the institutional guidelines for the care and use of animals. To establish tumor xenografts, LNCaP cells (approx. 10^7 cells) were suspended in 200 μL of a 1/1 mixture (v/v) of DMEM F-12 and Matrigel (BD Biosciences, Heidelberg, Germany) and inoculated subcutaneously onto the right shoulder of 6–8 weeks old CB17-SCID mice (Charles River Laboratories, Sulzfeld, Germany). Mice were used for experiments when tumor size reached 5–10 mm in diameter (3–6 weeks after inoculation).
(§3) Approximately 2–10 MBq (0.20 nmol) of the ^177Lu-labeled PSMA inhibitors were injected into the tail vein of LNCaP tumor xenograft-bearing male CB17-SCID mice (n = 3 to 5). They were sacrificed by CO2 asphyxiation and cervical dislocation either 1 h or 24 h post injection (p.i.) (n = 3 for [^177Lu]Lu-5, -6 & -7 (proinhibitor compounds I-III), n = 4 for [^177Lu]Lu-10 (alkyne), n = 5 for [^177Lu]Lu-3 (carbamate I) and n = 5 for [^177Lu]Lu-11 (tetrazole)). Selected organs were removed, weighed and organ activities measured in a γ-counter.
as §3, with “2 - 10” for “2–10”, “(alkyne) and” for “(alkyne),”

CC(C)(C)[Si](F)(c1ccc(C(=O)NC[C@@H](NC(=O)CN2CCN(CC(=O)[O-])CCN(CC(=O)[O-])CCN(CC(=O)[O-])CC2)C(=O)N[C@H](CCCCNC(=O)CCC(=O)NCCC[C@@H](NC(=O)CC[C@H](NC(=O)N[C@@H](Cc2ccco2)C(=O)O)C(=O)O)C(=O)O)C(=O)O)cc1)C(C)(C)C.[Lu+3] [^natLu-9]
IC50 (PSMA): > 440 nM

C#CC[C@H](NC(=O)N[C@@H](CCC(=O)N[C@H](CCCNC(=O)CCC(=O)NCCCC[C@@H](NC(=O)[C@@H](CNC(=O)c1ccc([Si](F)(C(C)(C)C)C(C)(C)C)cc1)NC(=O)CN1CCN(CC(=O)[O-])CCN(CC(=O)[O-])CCN(CC(=O)[O-])CC1)C(=O)O)C(=O)O)C(=O)O)C(=O)O.[Lu+3] [^natLu/[^177Lu]Lu-10]
IC50 (PSMA): 138 ± 53 nM | %Internalization compared to the reference (LNCaP cells): 1 h: 1.2 ± 0.4% | %Internalization compared to the reference (LNCaP cells; listed as [^177Lu]Lu-10): 1.2 ± 0.4% | Biodistribution Adrenals ([1]; 24 h p.i.): 0.02 ± 0.02 % ID/g | Biodistribution Blood ([1]; 24 h p.i.): 0.01 ± 0.01 % ID/g | Biodistribution Bone ([1]; 24 h p.i.): 0.03 ± 0.01 % ID/g | Biodistribution Heart ([1]; 24 h p.i.): 0.01 ± 0.00 % ID/g | Biodistribution Intestine ([1]; 24 h p.i.): 0.32 ± 0.29 % ID/g | Biodistribution Kidneys ([1]; 24 h p.i.): 1.29 ± 0.28 % ID/g | Biodistribution Liver ([1]; 24 h p.i.): 0.09 ± 0.04 % ID/g | Biodistribution Lung ([1]; 24 h p.i.): 0.03 ± 0.03 % ID/g | Biodistribution Pancreas ([1]; 24 h p.i.): 0.01 ± 0.01 % ID/g | Biodistribution Parotid gland ([1]; 24 h p.i.): 0.02 ± 0.00 % ID/g | Biodistribution Spleen ([1]; 24 h p.i.): 0.04 ± 0.00 % ID/g | Biodistribution Stomach ([1]; 24 h p.i.): 0.12 ± 0.11 % ID/g | Biodistribution Submandibular gland ([1]; 24 h p.i.): 0.02 ± 0.00 % ID/g | Biodistribution Tumor ([1]; 24 h p.i.): 0.10 ± 0.03 % ID/g | Ratio Tumor-to-blood ([1]; 24 h p.i.): 26.8 ± 16.9 | Ratio Tumor-to-kidney ([1]; 24 h p.i.): 0.08 ± 0.01 | Ratio Tumor-to-liver ([1]; 24 h p.i.): 1.46 ± 0.88 | Ratio Tumor-to-muscle ([1]; 24 h p.i.): 27.7 ±10.9 | Ratio Tumor-to-parotid gland ([1]; 24 h p.i.): 6.38 ± 3.06 | Ratio Tumor-to-submandibular gland ([1]; 24 h p.i.): 6.11 ± 1.78 | factor by which tumor-to-submandibular gland and tumor-to-parotid gland ratios are lower than for [177Lu]Lu-1 ([1]; 24 h p.i.): 45

CC(C)(C)[Si](F)(c1ccc(C(=O)NC[C@@H](NC(=O)CN2CCN(CC(=O)[O-])CCN(CC(=O)[O-])CCN(CC(=O)[O-])CC2)C(=O)N[C@H](CCCCNC(=O)CCC(=O)NCCC[C@@H](NC(=O)CC[C@H](NC(=O)O[C@@H](CCC(=O)O)C(=O)O)C(=O)O)C(=O)O)C(=O)O)cc1)C(C)(C)C.[Lu+3] [^natLu/[^177Lu]Lu-3]
IC50 (PSMA): 7.1 ± 0.7 nM | %Internalization compared to the reference (LNCaP cells): 1 h: 67.8 ± 0.5% | Biodistribution Adrenals ([1]; 1 h p.i.): 1.46 ± 0.70 % ID/g | Biodistribution Blood ([1]; 1 h p.i.): 0.97 ± 0.18 % ID/g | Biodistribution Bone ([1]; 1 h p.i.): 0.18 ± 0.02 % ID/g | Biodistribution Heart ([1]; 1 h p.i.): 0.36 ± 0.04 % ID/g | Biodistribution Intestine ([1]; 1 h p.i.): 0.36 ± 0.17 % ID/g | Biodistribution Kidneys ([1]; 1 h p.i.): 61.8 ± 25.9 % ID/g | Biodistribution Liver ([1]; 1 h p.i.): 0.87 ± 0.28 % ID/g | Biodistribution Lung ([1]; 1 h p.i.): 2.88 ± 2.96 % ID/g | Biodistribution Muscle ([1]; 1 h p.i.): 0.13 ± 0.04 % ID/g | Biodistribution Pancreas ([1]; 1 h p.i.): 0.25 ± 0.06 % ID/g | Biodistribution Parotid gland ([1]; 1 h p.i.): 0.62 ± 0.20 % ID/g | Biodistribution Spleen ([1]; 1 h p.i.): 2.51 ± 0.95 % ID/g | Biodistribution Stomach ([1]; 1 h p.i.): 0.30 ± 0.09 % ID/g | Biodistribution Submandibular gland ([1]; 1 h p.i.): 0.37 ± 0.08 % ID/g | Biodistribution Tumor ([1]; 1 h p.i.): 5.31 ± 0.94 % ID/g | Ratio Tumor-to-blood ([1]; 1 h p.i.): 5.57 ± 1.18 | Ratio Tumor-to-kidney ([1]; 1 h p.i.): 0.09 ± 0.03 | Ratio Tumor-to-liver ([1]; 1 h p.i.): 6.61 ± 2.19 | Ratio Tumor-to-muscle ([1]; 1 h p.i.): 44.1 ± 9.0 | Ratio Tumor-to-parotid gland ([1]; 1 h p.i.): 9.09 ± 3.13 | Ratio Tumor-to-submandibular gland ([1]; 1 h p.i.): 14.7 ± 3.5 | Biodistribution Adrenals ([1]; 24 h p.i.): 0.04 ± 0.01 % ID/g | Biodistribution Bone ([1]; 24 h p.i.): 0.02 ± 0.01 % ID/g | Biodistribution Heart ([1]; 24 h p.i.): 0.02 ± 0.01 % ID/g | Biodistribution Intestine ([1]; 24 h p.i.): 0.12 ± 0.06 % ID/g | Biodistribution Kidneys ([1]; 24 h p.i.): 0.31 ± 0.05 % ID/g | Biodistribution Liver ([1]; 24 h p.i.): 0.13 ± 0.05 % ID/g | Biodistribution Lung ([1]; 24 h p.i.): 0.03 ± 0.01 % ID/g | Biodistribution Muscle ([1]; 24 h p.i.): 0.01 ± 0.01 % ID/g | Biodistribution Pancreas ([1]; 24 h p.i.): 0.02 ± 0.01 % ID/g | Biodistribution Parotid gland ([1]; 24 h p.i.): 0.04 ± 0.02 % ID/g | Biodistribution Spleen ([1]; 24 h p.i.): 0.09 ± 0.01 % ID/g | Biodistribution Stomach ([1]; 24 h p.i.): 0.06 ± 0.04 % ID/g | Biodistribution Submandibular gland ([1]; 24 h p.i.): 0.03 ± 0.01 % ID/g | Biodistribution Tumor ([1]; 24 h p.i.): 1.20 ± 0.55 % ID/g | Ratio Tumor-to-blood ([1]; 24 h p.i.): 947 ± 652 | Ratio Tumor-to-kidney ([1]; 24 h p.i.): 3.80 ± 1.36 | Ratio Tumor-to-liver ([1]; 24 h p.i.): 8.94 ± 2.94 | Ratio Tumor-to-muscle ([1]; 24 h p.i.): 127 ± 92 | Ratio Tumor-to-parotid gland ([1]; 24 h p.i.): 31.8 ± 9.3 | Ratio Tumor-to-submandibular gland ([1]; 24 h p.i.): 34.5 ± 9.2 | factor by which tumor-to-submandibular gland and tumor-to-parotid gland ratios are lower than for [177Lu]Lu-1 ([1]; 24 h p.i.): 8

CCCCC[C@H](NC(=O)N[C@@H](CCC(=O)N[C@H](CCCNC(=O)CCC(=O)NCCCC[C@@H](NC(=O)[C@@H](CNC(=O)c1ccc([Si](F)(C(C)(C)C)C(C)(C)C)cc1)NC(=O)CN1CCN(CC(=O)[O-])CCN(CC(=O)[O-])CCN(CC(=O)[O-])CC1)C(=O)O)C(=O)O)C(=O)O)C(=O)O.[Lu+3] [^natLu-8]
IC50 (PSMA): > 2000 nM
